According to PMC7450057, “Enhancing intracellular accumulation and target engagement of PROTACs with reversible covalent chemistry” (Nature Communications, 2020):
Several values for one entry are separate records, joined by “and”; a condition that tells them apart may be missing. Equal entries are not always repeated.

Assays:
BTK [1] = molecular target: T1, BTK (Homo sapiens, UniProt Q06187); experiment: BTK degradation in MOLM-14 cells (western blot); assay type: cell-based; parameters: endogenous in cells; host or cells: MOLM-14; conditions: for Quantification anti-BTK / anti-β-actin (BTK level vs DMSO): Figure 2d, DMSO = 100 (mean); for BTK degradation (in words): MOLM-14 cells, 200 nM, 24 h (Fig. 2d)
T1 sequence (Q06187 whole entry): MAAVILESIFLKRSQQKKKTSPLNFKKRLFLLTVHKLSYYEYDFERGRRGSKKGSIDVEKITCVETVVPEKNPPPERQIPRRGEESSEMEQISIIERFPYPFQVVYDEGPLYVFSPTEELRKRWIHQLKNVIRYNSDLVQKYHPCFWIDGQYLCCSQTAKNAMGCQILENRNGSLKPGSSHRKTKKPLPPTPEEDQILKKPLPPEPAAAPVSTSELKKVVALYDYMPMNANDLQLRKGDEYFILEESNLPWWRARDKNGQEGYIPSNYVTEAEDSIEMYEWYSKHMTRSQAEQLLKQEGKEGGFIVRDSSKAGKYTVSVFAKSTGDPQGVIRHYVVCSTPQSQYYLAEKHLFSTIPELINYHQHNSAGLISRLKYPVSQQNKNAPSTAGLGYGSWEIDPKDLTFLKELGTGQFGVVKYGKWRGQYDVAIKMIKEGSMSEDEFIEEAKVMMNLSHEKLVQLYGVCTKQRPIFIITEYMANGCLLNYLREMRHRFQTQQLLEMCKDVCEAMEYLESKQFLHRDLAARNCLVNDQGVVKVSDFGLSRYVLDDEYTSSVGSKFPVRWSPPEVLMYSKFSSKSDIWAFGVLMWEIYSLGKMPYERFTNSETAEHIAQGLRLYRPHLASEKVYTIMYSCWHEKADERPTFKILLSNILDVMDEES

BTK [2] = molecular target: T1, BTK; experiment: In vitro BTK kinase assay (PhosphoSens); assay type: biochemical; parameters: purchased SignalChem B10-10H-10; conditions: for IC50: AssayQuant BTK assay kit, 2.5 nM BTK, 1 mM ATP, duplicates, read-out: BTK inhibition IC50; for activity at 2.56 pM / activity at 12.8 pM / activity at 64 pM / activity at 0.00032 µM / activity at 0.0016 µM / activity at 0.008 µM / activity at 0.04 µM / activity at 0.2 µM / activity at 1 µM: Supplementary Figure 5, replicates, read-out: Inhibition(%); for activity at 2.56 pM: drug concentration 2.56 pM; for activity at 12.8 pM: drug concentration 12.8 pM; for activity at 64 pM: drug concentration 64 pM; for activity at 0.00032 µM: drug concentration 320 pM; for activity at 0.0016 µM: drug concentration 1600 pM; for activity at 0.008 µM: drug concentration 8000 pM; for activity at 0.04 µM: drug concentration 40000 pM; for activity at 0.2 µM: drug concentration 200000 pM; for activity at 1 µM: drug concentration 1000000 pM
Description: BTK kinase activity inhibition IC50 was measured by PhosphoSens® Kinase Assay Kit (Assay Quant Technologies Inc., Cat.# CSKS-AQT0101K). […] Active recombinant BTK was purchased from SignalChem (Cat.# B10-10H-10). All the drugs (3 warhead control and 4 PROTACs) were dissolved in DMSO (10 mM). […] To calculate the IC50, subtract the background fluorescence determined with the “no kinase” control for each time point from the total signal to obtain corrected Relative Fluorescence Units (RFU) values. Plot the corrected RFU vs. Time for each inhibitor concentration and determine the initial reaction rates (slope of the linear portion) for each progress curve for each inhibitor concentration. Then plot velocity (RFU corrected/minute) vs [inhibitor] and determine the IC50 using a 4-parameter logistic fit.

Jeko-1 = experiment: IC50 in MCL cell lines (Supplementary Table 2), Jeko-1; conditions: for IC50: Jeko-1, triplicates; for Cell Viability (%): Jeko-1 cells, replicate wells
Mino = experiment: IC50 in MCL cell lines (Supplementary Table 2), Mino; conditions: for Cell Viability (%): Mino cells, replicate wells; for IC50: Mino, triplicates

Row | SMILES | Quantification anti-BTK / anti-β-actin (BTK level vs DMSO) (BTK [1]) | BTK degradation (in words) (BTK [1]) | IC50 (BTK [2]) | activity at 2.56 pM (BTK [2]) | activity at 12.8 pM (BTK [2]) | activity at 64 pM (BTK [2]) | activity at 0.00032 µM (BTK [2]) | activity at 0.0016 µM (BTK [2]) | activity at 0.008 µM (BTK [2]) | activity at 0.04 µM (BTK [2]) | activity at 0.2 µM (BTK [2]) | activity at 1 µM (BTK [2]) | IC50 (Jeko-1) | Cell Viability (%) (Jeko-1; 1.25E-06 M) | Cell Viability (%) (Jeko-1; 1.56E-07 M) | Cell Viability (%) (Jeko-1; 2.50E-06 M) | Cell Viability (%) (Jeko-1; 3.13E-07 M) | Cell Viability (%) (Jeko-1; 5.00E-06 M) | Cell Viability (%) (Jeko-1; 6.25E-07 M) | Cell Viability (%) (Jeko-1; 7.81E-08 M) | other results
1 | CN1C(=O)CCC(N2C(=O)c3cccc(NCC(=O)NCCCN(C)C(C)(C)C=C(C#N)C(=O)N4CCCC(n5nc(-c6ccc(Oc7ccccc7)cc6)c6c(N)ncnc65)C4)c3C2=O)C1=O (stereo not shown) [RC-1-Me] | 91.1107 | cannot degrade BTK in cells | 6.8 nM | 108% | 101% | 109% | 106% | 88.3% | 48.8% | 10.5% | 3.98% | 1.27% | 600 nM | 36.268% and 32.7063% and 31.5519% | 68.2022% and 62.2702% and 73.2784% | 5.54% and 14.7844% and 6.721% | 71.0782% and 71.3298% and 71.3347% | 4.5335% and 3.7442% and 3.927% | 49.1754% and 57.0313% and 33.3624% | 77.062% and 93.1685% and 69.7463% | Cell Viability (%) (Mino; 1.25E-06 M): 62.8357% and 58.5114% and 61.2528%; Cell Viability (%) (Mino; 1.56E-07 M): 87.7372% and 87.5805% and 85.7829%; Cell Viability (%) (Mino; 2.50E-06 M): 55.4376% and 54.2347% and 53.6197%; Cell Viability (%) (Mino; 3.13E-07 M): 79.9575% and 76.1954% and 74.7404%; Cell Viability (%) (Mino; 5.00E-06 M): 43.6522% and 45.138% and 46.9951%; Cell Viability (%) (Mino; 6.25E-07 M): 66.0951% and 69.0683% and 66.9419%; Cell Viability (%) (Mino; 7.81E-08 M): 88.6147% and 85.2411% and 92.7295%; IC50 (Mino): 3.3 µM
2 | CC(C)(C)C=C(C#N)C(=O)N1CCCC(n2nc(-c3ccc(Oc4ccccc4)cc3)c3c(N)ncnc32)C1 (stereo not shown) [RC-Ctrl] | 83.2734 | Neither RC-Ctrl, nor pomalidomide, nor a combination of both caused BTK degradation | 2.2 nM | 108% | 105% | 109% | 96.8% | 64.1% | 25.5% | 4.68% | 1.89% | 2.91% | 600 nM | 31.3102% and 33.1774% and 45.3843% | 69.2456% and 61.0172% and 73.2882% | 11.5927% and 9.314% and 11.5138% | 58.8318% and 42.4713% and 68.6832% | 5.458% and 5.865% and 4.45% | 52.1031% and 47.1602% and 45.3596% | 53.9062% and 67.1539% and 84.5751% | BTK degradation (in words) (BTK [1]; listed as RC-1 warhead): neither the RC-1 warhead, nor pomalidomide, nor a combination of both caused BTK degradation; reduction of BTK inhibition activity compared with IRC-Ctrl (BTK [2]; ratio of IC50 values): 7 folds; Cell Viability (%) (Mino; 1.25E-06 M): 64.9212% and 67.7956% and 65.2142%; Cell Viability (%) (Mino; 1.56E-07 M): 72.1676% and 75.0045% and 70.0395%; Cell Viability (%) (Mino; 2.50E-06 M): 62.0161% and 61.5033% and 61.0381%; Cell Viability (%) (Mino; 3.13E-07 M): 62.4012% and 64.8258% and 70.1741%; Cell Viability (%) (Mino; 5.00E-06 M): 55.6234% and 57.3306% and 56.4139%; Cell Viability (%) (Mino; 6.25E-07 M): 64.669% and 69.1433% and 66.0679%; Cell Viability (%) (Mino; 7.81E-08 M): 69.6595% and 74.2003% and 68.2948%; IC50 (Mino): > 5 µM
